Data reported in US20100292210A1, “Novel Compounds for A-Beta-Related Pathologies” (AstraZeneca AB, priority 2009, published 2010).

Test system: Aβ42 release
Test: Aβ42 release from HEK cells stably expressing APPswe, Meso Scale Discovery electrochemiluminescence assay
Type: cell-based
Settings: Homo sapiens, HEK293; HEK cell line stably expressing APPswe; 4-6 h incubation with test compound; Aβ42 secreted to cell medium; read-out: pIC50 values of Aβ42 release (converted)
Method: The level of activity of the compounds on Aβ formation was tested using the following method:
Compounds were diluted in 100% DMSO and stored at […] prior to use. Human Embryonic Kidney (HEK) cell line stably expressing APP with the Swedish mutation (APPswe) were cultured using Dulbecco's Modified Eagles medium (DMEM) supplied with […] glucose, Na-pyruvate and GlutaMAX with 10% FBS, 100 U/ml penicillin-streptomycin (PEST) respectively, 1×non-essential amino acids (NEAA), […], 100 μg/ml Zeocine. Cells at about 80% confluence were washed with PBS, detached from culture flasks using 1×Trypsin/EDTA diluted in PBS, re-suspended in cell media and plated in 384-well poly-d-lysine coated cell culture plates at about 10000-15000 cells/well, in 25 μL cell media. Optionally, cryo-preserved cells (frozen and stored at −140° C. in 90% cell media and 10% DMSO) were thawed, washed and plated as above. Next the cells were incubated for 15-24 h at 37° C. and 5% CO2, after which cell medium was changed. Fresh medium containing test compound diluted ×200 from prepared compound plate was added to the cells before further incubation for 4-6 hours at 37° C. and 5% CO2. After incubation with test compound the amount of Aβ peptides, including Aβ42, Aβ40, Aβ39, Aβ38 and Aβ37, secreted to cell medium was analyzed using the electrochemiluminescence assay technology from Meso Scale Discovery Technology, in combination with specific antibodies raised against the different Aβ peptides. Potential cytotoxic effects of the compounds were usually assayed by measuring the ATP content (ViaLight) from cell lysate.

| Structure (SMILES) | IC50 |
| --- | --- |
| Cc1cncn1-c1ccc(Nc2ccc3c(n2)O[C@H](c2ccccc2)CN(CCO)C3)cc1 [Example 30, (R)-2-(8-(4-(5-methyl-1H-imidazol-1-yl)phenylamino)-2-phenyl-2,3-dihydropyrido[3,2-f][1,4]oxazepin-4(5H)-yl)ethanol] | 631 nM |
| COc1cc(Nc2ccc3c(n2)OC(COC(C)C)CN(C(C)=O)C3)ccc1-n1cnc(C)c1 (stereo not drawn) [Example 31, 1-(2-(Isopropoxymethyl)-8-(3-methoxy-4-(4-methyl-1H-imidazol-1-yl)phenylamino)-2,3-dihydropyrido[3,2-f][1,4]oxazepin-4(5H)-yl)ethanone] | 631 nM |
| OCCN1Cc2ccc(Nc3ccc(-n4cncn4)c(Cl)c3)nc2O[C@H](c2ccccc2)C1 [Example 32, (R)-2-(8-(3-Chloro-4-(1H-1,2,4-triazol-1-yl)phenylamino)-2-phenyl-2,3-dihydropyrido[3,2-f][1,4]oxazepin-4(5H)-yl)ethanol] | 501 nM |
| COc1cc(Nc2ccc3c(n2)O[C@H](c2ccccc2)CN(CCO)C3)ccc1-n1cncc1C [Example 34, (R)-2-(8-(3-Methoxy-4-(5-methyl-1H-imidazol-1-yl)phenylamino)-2-phenyl-2,3-dihydropyrido[3,2-f][1,4]oxazepin-4(5H)-yl)ethanol] | 251 nM |
| COc1cc(Nc2ccc3c(n2)OC(COC(C)C)CN(C)C3)ccc1-n1cnc(C)c1 (stereo not drawn) [Example 35, 2-(Isopropoxymethyl)-N-(3-methoxy-4-(4-methyl-1H-imidazol-1-yl)phenyl)-4-methyl-2,3,4,5-tetrahydropyrido[3,2-f][1,4]oxazepin-8-amine] | 200 nM |
| COc1cc(Nc2ccc3c(n2)O[C@H](c2ccccc2)CN(CCO)C3)ccc1-n1cnc(C)n1 [Example 41, (R)-2-(8-(3-Methoxy-4-(3-methyl-1H-1,2,4-triazol-1-yl)phenylamino)-2-phenyl-2,3-dihydropyrido[3,2-f][1,4]oxazepin-4(5H)-yl)ethanol] | 39.8 nM |

Other lines, results leading:

| IC50 | Structure (SMILES) |
| --- | --- |
| 316 nM | COc1cc(Nc2ccc3c(n2)OC(c2cc(C)nn2C)CN(CC#N)C3)ccc1-n1cnc(C)c1 (stereo not drawn) [Example 33, 2-(2-(1,3-Dimethyl-1H-pyrazol-5-yl)-8-(3-methoxy-4-(4-methyl-1H-imidazol-1-yl)phenylamino)-2,3-dihydropyrido[3,2-f][1,4]oxazepin-4(5H)-yl)acetonitrile] |
| 158 nM | COc1cc(Nc2ccc3c(n2)OC(c2ccccn2)CN(CC#N)C3)ccc1-n1cnc(C)c1 (stereo not drawn) [Example 36, 2-(8-(3-Methoxy-4-(4-methyl-1H-imidazol-1-yl)phenylamino)-2-(pyridin-2-yl)-2,3-dihydropyrido[3,2-f][1,4]oxazepin-4(5H)-yl)acetonitrile] |
| 126 nM | COc1cc(Nc2ccc3c(n2)OC(c2ccccn2)CN(C)C3)ccc1-n1cnc(C)c1 (stereo not drawn) [Example 37, N-(3-Methoxy-4-(4-methyl-1H-imidazol-1-yl)phenyl)-4-methyl-2-(pyridin-2-yl)-2,3,4,5-tetrahydropyrido[3,2-f][1,4]oxazepin-8-amine] |
| 100 nM | COc1cc(Nc2cnc3c(n2)O[C@H](c2ccccc2)CN(CC#N)C3)ccc1-n1cnc(C)c1 [Example 38, (R)-2-(3-(3-methoxy-4-(4-methyl-1H-imidazol-1-yl)phenylamino)-6-phenyl-6,7-dihydropyrazino[2,3-f][1,4]oxazepin-8(9H)-yl)acetonitrile] |
| 79.4 nM | COc1cc(Nc2cnc3c(n2)O[C@H](c2ccccc2)CN(C)C3)ccc1-n1cnc(C)c1 [Example 39, (R)—N-(3-Methoxy-4-(4-methyl-1H-imidazol-1-yl)phenyl)-8-methyl-6-phenyl-6,7,8,9-tetrahydropyrazino[2,3-f][1,4]oxazepin-3-amine] |
| 50.1 nM | COc1cc(Nc2ccc3c(n2)O[C@H](c2ccccc2)CN(C(=O)N(C)C)C3)ccc1-n1cnc(C)c1 [Example 40, (R)-8-(3-Methoxy-4-(4-methyl-1H-imidazol-1-yl)phenylamino)-N,N-dimethyl-2-phenyl-2,3-dihydropyrido[3,2-f][1,4]oxazepine-4(5H)-carboxamide] |
